Active and inactive are the calls of the source. Cut-off read from the data, not from the text of the source: active = maximum fold increase above about 1.5; inconclusive = no clear call, values can overlap the other calls; inactive = below that; tested in PC3 cells.
System: HSV replication augmentation in cells, fold increase
Test: enhancers of HSV replication in host cells, fold increase, host cell viability (AID 1956)

Compound | EC50
COc1cccc(C2C=C(c3ccc(OC)cc3OC)Nc3nnnn32)c1 (centres undefined) | > 25 µM (inactive)
CC1(C(O)(C#CCN2CCCCC2)c2ccccc2)CCCC1 (centres undefined) | > 25 µM (inactive)
CC(C)Oc1ncnc2c1[nH]c1ccccc12 | 3.18 µM (inactive)
O=C(c1cc(COc2ccc3ncccc3c2)on1)N1CCC(O)CC1 | > 25 µM (inactive)
Cc1ccc(Cn2ccc(-c3cnc(-c4ccccc4)s3)n2)cc1 | > 25 µM (inactive)
Cn1c(C(=O)Nc2ccc3c(c2)OCCO3)cc2c(=O)n(C)c3ccccc3c21 | > 25 µM (inactive)
Cc1ccc(Cn2c(=N)n(CC(O)c3ccco3)c3ccccc32)cc1 (centres undefined) | > 25 µM (inactive)
CNC(=S)NNC(=O)c1ccc(=O)n(Cc2ccc(Cl)cc2Cl)c1 | > 25 µM (inactive)
O=C(Nc1ccccc1C(=O)Nc1ccccc1C(=O)NCc1ccco1)c1ccco1 | > 25 µM (inactive)
CC(C)(C)c1cc(-c2n[nH]c(=S)n2-c2ccccc2F)n[nH]1 | > 25 µM (inactive)
COc1ccccc1NC(=O)c1ccc(Br)o1 | > 25 µM (inactive)
Nc1cccnc1Sc1cc(Cl)c(Cl)cc1Cl | > 25 µM (inactive)
CC(C)CC(N=C1NC(C)(C)Cc2ccccc21)C(=O)O (centres undefined) | > 25 µM (inactive)
C=CCNC(=S)Nc1ccc2nc(C)oc2c1 | > 25 µM (inactive)
O=C(C1=NN[C@@H]2C(=O)N(c3cccc(F)c3)C(=O)[C@H]12)c1cnccn1 | > 25 µM (inactive)
CCc1ccc2[nH]c(=O)c(CN(Cc3ccccc3OC)Cc3nnnn3Cc3ccco3)cc2c1 | > 25 µM (inactive)
COC(=O)c1c(C)[nH]c(O)c1C=Nc1ccc(C(C)C)cc1 | > 25 µM (inactive)
CS(=O)(=O)N1CC2CCCN2c2cc(C(F)(F)F)ccc21 (centres undefined) | > 25 µM (inactive)
O=C1CC(/C=C/c2ccccn2)=Nc2ccccc2N1 | 22.8 µM (inactive)
COc1ccc(OC2C(=O)N(Cc3ccc4c(c3)OCO4)C2c2sccc2C)cc1 (centres undefined) | > 25 µM (inactive)
CCOC(=O)c1c(NC(=O)c2cc3n(n2)C(C(F)(F)F)CC(c2cccs2)N3)sc(C)c1C (centres undefined) | 16.6 µM (inactive)
COc1ccc(CCc2nnc(CCC(=O)N(C)Cc3ccnc4ccccc34)o2)cc1 | 13.1 µM (inactive)
CCN1C(=O)/C(=C/C=C2\C=CN(CC)c3ccccc32)SC1=S | > 25 µM (inactive)

Compound | EC50
CCCCn1ccnc1C(=O)c1cccc(S(=O)(=O)N2CC(C)CC(C)C2)c1 (centres undefined) | > 25 µM (inactive)
CN1C(=O)CC(c2ccco2)Sc2ccccc21 (centres undefined) | > 25 µM (inactive)
CC(C)N(C(=O)N1CCC(c2nc(-c3ccncc3)no2)CC1)C(C)C | > 25 µM (inactive)
CN(CC1CCOCC1)C(=O)CC1C(=O)NCCN1CC1CCCCC1 (centres undefined) | > 25 µM (inactive)
O=S(=O)(Nc1ccc(Cc2ccncc2)cc1)c1ccc(Cl)c(Cl)c1 | > 25 µM (inactive)
CCc1ccc(NC(=O)COc2ccc(/C=C(/C#N)c3nc4ccccc4[nH]3)cc2OC)cc1 | 24 µM (inactive)
O=C1NC(c2ccccc2)=N/C1=C/c1ccco1 | > 25 µM (inactive)
NS(=O)(=O)c1ccc(NC(=O)COC(=O)c2c3c(nc4ccccc24)/C(=C\c2ccc4c(c2)OCO4)CCC3)cc1 | > 25 µM (inactive)
CN1C(=O)C(C2c3ccccc3C(=O)N2Cc2ccc([N+](=O)[O-])cc2)C(=O)N(C)C1=O (centres undefined) | > 25 µM (inactive)
CC(C)(C)c1ccc(Cn2c(=N)n(CC(O)c3ccco3)c3ccccc32)cc1 (centres undefined) | 11.4 µM (inactive)
CC(=O)Nc1ccc(S(=O)(=O)Nc2cc(-c3ccccc3)nn2C)cc1 | > 25 µM (inactive)
CCn1c(/C=C/N(C)c2ccccc2)[n+](CC)c2ccc(Cl)cc21 | 10.2 µM (inactive)
O=C(O)/C(=C\c1ccc(Br)cc1)c1ccc(S(=O)(=O)N2CCCCC2)s1 | > 25 µM (inactive)
O=C1CCCC2=C1C(c1ccc(Cl)cc1)n1c(s/c(=C\c3ccc4ccncc4c3)c1=O)=N2 (centres undefined) | > 25 µM (inactive)
CCOC(=O)c1cnc(COc2ccc(OC)cc2)[nH]c1=O | > 25 µM (inactive)
C[N+]1=C(/C=C/Nc2ccccc2Cl)C(C)(C)c2ccccc21 | > 25 µM (inactive)
Cc1ccc(C(=O)NNC2=Nc3cccc4cccc2c34)cc1 | > 25 µM (inactive)
CC1(C)CC(=O)C(C=Nc2ccc(C(=O)c3ccccc3)cc2N=CC2=C(O)CC(C)(C)CC2=O)=C(O)C1 | > 25 µM (inactive)
CCOCCCNC(=S)N1CCCN(c2nc3cc(C)c(C)cc3cc2C#N)CC1 | > 25 µM (inactive)
COc1cccc(C(=O)N2CCN(CCCc3ccccc3)CC2)c1OC | > 25 µM (inactive)
COc1ccccc1OP(=O)(Nc1cccnc1)Oc1ccccc1OC | > 25 µM (inactive)
CCOC(=O)C1=C(N)Oc2c(oc(CO)cc2=O)C1c1ccc(Cl)cc1 (centres undefined) | > 25 µM (inactive)
C=CCN1C(=O)[C@]2(c3ccccc31)C1CCCC=C1C(C#N)=C(N)C2(C#N)C#N (some centres undefined) | > 25 µM (inactive)

Compound | EC50
CCOCCCNC(=O)CN1C(=O)C(CC)Oc2ccccc21 (centres undefined) | > 25 µM (inactive)
Nc1c(Cl)ncnc1N/N=C/c1ccc2ccccc2n1 | 4.3 µM (inactive)
Cc1cc(=O)[nH]c(SCC(=O)/C=C2\N(C)c3ccccc3C2(C)C)n1 | > 25 µM (inactive)
CC(C(=O)c1c[nH]c2ccccc12)N1CCc2ccccc2C1 (centres undefined) | > 25 µM (inactive)
O=C(O)c1ccc(/C=N/Nc2ncc(C(F)(F)F)cc2Cl)cc1 | > 25 µM (inactive)
O=C(O)/C=C/C(=O)Nc1ccc(-n2ccc(C(F)(F)F)n2)cc1 | > 25 µM (inactive)
NNc1nc(-c2ccccc2Cl)nc2sc3c(c12)CCCC3 | > 25 µM (inactive)
Cc1cccc(N=C2NC(=O)/C(=C/C=C/c3ccco3)S2)c1 | > 25 µM (inactive)
Cc1ccc(-c2nc(CSCC(=O)N3CCN(c4ccccn4)CC3)c(C)o2)cc1 | 15.7 µM (inactive)
N#C/C(=C\Nc1ccc2cn[nH]c2c1)c1nc(-c2ccc(Cl)cc2)cs1 | 24.4 µM (inactive)
Cc1cccc(CSc2nnc(-c3cnccn3)n2C)c1 | > 25 µM (inactive)
CCN(CC)c1ccc(/C=N/Nc2nc(C)cc(C)n2)cc1 | 23.2 µM (inactive)
N#CC1=C2N=C(N)c3ccccc3N2C2=C(C(=O)CCC2)C1c1ccc(Cl)cc1 (centres undefined) | > 25 µM (inactive)
Cc1ccc(-c2nc(NC(=O)CSc3nnc4scc(-c5ccccc5)n34)ns2)cc1 | > 25 µM (inactive)
Oc1ccc(N=Nc2cccc(C(F)(F)F)c2)cc1C=Nc1ccc(N2CCOCC2)cc1 | 18.8 µM (inactive)
N#C/C(=C\c1ccccc1[N+](=O)[O-])C(=O)NC1CCCCC1 | > 25 µM (inactive)
CC1=CC(C)(C)Nc2ccc(OC(=O)CN3C(=O)C4CCCCC4C3=O)cc21 (centres undefined) | > 25 µM (inactive)
O=C(Nc1nc(-c2ccccn2)cs1)c1cccc(-n2cnnn2)c1 | > 25 µM (inactive)
Nc1ccccc1Nc1cc(-c2ccccc2)[nH]n1 | 10.9 µM (inactive)
O=C1NC(=O)N(Cc2ccco2)C(=O)/C1=C\c1cccn1CCOc1ccc(Cl)cc1 | > 25 µM (inactive)
CC(C)(C)c1ccc(Oc2ccc(N)cn2)cc1 | > 25 µM (inactive)
COCc1ccc(C(=O)N2CCCC(C(=O)c3cc(F)ccc3F)C2)s1 (centres undefined) | > 25 µM (inactive)
Cc1nc2ccccc2c2oc(C(=O)N3CCc4ccccc4C3)cc12 | > 25 µM (inactive)

Compound | EC50
Cc1ccccc1C(=O)NNc1ccc([N+](=O)[O-])cc1 | > 25 µM (inactive)
CCOC(=O)c1c(NC(=O)C2COc3ccccc3O2)sc2c1CCN(Cc1ccccc1)C2 (centres undefined) | > 25 µM (inactive)
Cn1cc(Br)c(NC(=O)/C=C/C(=O)O)n1 | > 25 µM (inactive)
O=C(CC1NCCNC1=O)NC1Cc2ccccc2C1 (centres undefined) | > 25 µM (inactive)
OC(CNCc1ccccc1)c1ccccc1 (centres undefined) | > 25 µM (inactive)
Cc1ccc(S(=O)(=O)N(C(=O)c2ccncc2)c2ccc(OC(=O)c3ccncc3)c3ccccc23)cc1 | 18.3 µM (inactive)
Cc1ccc(Oc2nnc(-c3ccccc3)c3ccccc23)cc1 | > 25 µM (inactive)
CSc1nc(Cl)c(Cc2ccc(OC(C)C)cc2)c(N(C)C)n1 | > 25 µM (inactive)
COc1ccc(S(=O)(=O)/N=C2/NC(=O)/C(=C\c3ccco3)S2)cc1 | > 25 µM (inactive)
CCCN1C(=O)C2(C(C(=O)c3ccc(C)o3)=C(O)C(=O)N2CCCOC)c2ccccc21 (centres undefined) | > 25 µM (inactive)
Cc1cccc2nc3c(nc12)-c1ccccc1C3=O | > 25 µM (inactive)
O=c1cc(N2CCCCC2)c(-c2ccccc2)nn1Cc1c(Cl)cccc1Cl | > 25 µM (inactive)
CCOC(=O)COc1ccc(S(=O)(=O)Nc2ccc(C)cc2)cc1 | > 25 µM (inactive)
CCN(CC)c1ccc(CC2C(=O)N(C)C(=O)N(C)C2=O)cc1 | > 25 µM (inactive)
COC(=O)C1=C(O)C(C(=O)OC)C(c2ccc(C)cc2)C(C#N)(C#N)C1c1ccc(C)cc1 (centres undefined) | > 25 µM (inactive)
COc1ccc(C2C(C#N)=C(N)N(c3sc4c(c3C#N)CCCC4)C3=C2C(=O)CC(C)(C)C3)cc1 (centres undefined) | > 25 µM (inactive)
NC(=S)Nc1cc(Cl)cc(Cl)c1 | > 25 µM (inactive)
CC(=O)c1cccc(NC(=O)/C=C/c2ccc([N+](=O)[O-])s2)c1 | 19 µM (inactive)
COc1cccc(N2CCN(Cc3nc4scc(-c5ccccc5)c4c(=O)[nH]3)CC2)c1 | 21.9 µM (inactive)
Cc1ccc(-n2nc3c(c2NC(=O)c2ccc(OC(C)C)cc2)CS(=O)C3)cc1 (centres undefined) | > 25 µM (inactive)
